Laboratory results published in US7063946B2, “Methods, reagents, kits and apparatus for protein function analysis” (Meso Scale Technologies, LLC., priority 2001, dated 2006).

How the values were obtained:
Experiment in all cases: Kinase inhibitor profiling, autophosphorylation
Format in all cases: biochemical
[1] = molecular target: T1, Kit (Mus musculus, UniProt P05532)
T1 construct: specificity data for proteins generated from a library of eighteen full-length clones; biotin on random lysines (biotin-Lys-tRNA); host or cells: rabbit reticulocyte lysate, coupled transcription/translation (TnT, Promega)
T1 sequence (P05532 25-979): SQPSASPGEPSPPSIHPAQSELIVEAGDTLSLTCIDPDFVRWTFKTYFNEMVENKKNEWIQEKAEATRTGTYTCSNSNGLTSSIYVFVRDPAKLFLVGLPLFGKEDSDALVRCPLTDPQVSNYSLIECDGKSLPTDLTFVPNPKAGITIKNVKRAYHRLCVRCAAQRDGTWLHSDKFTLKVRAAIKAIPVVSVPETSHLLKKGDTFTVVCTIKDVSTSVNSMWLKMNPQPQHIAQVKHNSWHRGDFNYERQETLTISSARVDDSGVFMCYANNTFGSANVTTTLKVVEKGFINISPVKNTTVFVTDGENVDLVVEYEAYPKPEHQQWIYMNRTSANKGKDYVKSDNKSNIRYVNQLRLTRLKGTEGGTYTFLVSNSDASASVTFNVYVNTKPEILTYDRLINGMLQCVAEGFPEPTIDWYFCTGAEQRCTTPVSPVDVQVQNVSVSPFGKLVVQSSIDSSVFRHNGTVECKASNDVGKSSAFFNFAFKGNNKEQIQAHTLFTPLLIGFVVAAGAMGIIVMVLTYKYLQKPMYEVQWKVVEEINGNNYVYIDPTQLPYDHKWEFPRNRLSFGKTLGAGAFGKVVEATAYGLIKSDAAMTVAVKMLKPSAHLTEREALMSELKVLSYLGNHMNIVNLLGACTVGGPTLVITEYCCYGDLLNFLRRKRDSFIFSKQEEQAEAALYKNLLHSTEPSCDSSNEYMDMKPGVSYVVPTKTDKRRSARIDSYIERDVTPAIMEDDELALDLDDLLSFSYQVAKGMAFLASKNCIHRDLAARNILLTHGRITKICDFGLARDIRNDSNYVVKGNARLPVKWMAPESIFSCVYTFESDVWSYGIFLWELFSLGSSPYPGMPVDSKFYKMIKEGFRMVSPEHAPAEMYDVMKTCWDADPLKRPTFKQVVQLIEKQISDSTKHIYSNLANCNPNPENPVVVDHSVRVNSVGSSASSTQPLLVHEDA

[2] = molecular target: T2, SRC (Mus musculus, UniProt P05480)
T2 construct: specificity data for proteins generated from a library of eighteen full-length clones; host or cells: rabbit reticulocyte lysate, TnT coupled transcription/translation

[3] = molecular target: T3, SYK (Homo sapiens, UniProt P43405)
T3 construct: autophosphorylation activity from full-length clones Spleen Tyrosine Kinase (SYK) and Eph receptor-A7 (EphA7); host or cells: rabbit reticulocyte lysate, TnT coupled in vitro transcription/translation (cell-free)

[4] = molecular target: T4, FGFR1 (Homo sapiens, UniProt P11362)
T4 construct: specificity data for proteins generated from a library of eighteen full-length clones; host or cells: rabbit reticulocyte lysate, TnT coupled transcription/translation

[5] = molecular target: T5, HCK (Homo sapiens, UniProt P08631)
T5 construct: specificity data for proteins generated from a library of eighteen full-length clones; host or cells: rabbit reticulocyte lysate, TnT coupled in vitro transcription/translation (cell-free)
T5 sequence (P08631 whole entry): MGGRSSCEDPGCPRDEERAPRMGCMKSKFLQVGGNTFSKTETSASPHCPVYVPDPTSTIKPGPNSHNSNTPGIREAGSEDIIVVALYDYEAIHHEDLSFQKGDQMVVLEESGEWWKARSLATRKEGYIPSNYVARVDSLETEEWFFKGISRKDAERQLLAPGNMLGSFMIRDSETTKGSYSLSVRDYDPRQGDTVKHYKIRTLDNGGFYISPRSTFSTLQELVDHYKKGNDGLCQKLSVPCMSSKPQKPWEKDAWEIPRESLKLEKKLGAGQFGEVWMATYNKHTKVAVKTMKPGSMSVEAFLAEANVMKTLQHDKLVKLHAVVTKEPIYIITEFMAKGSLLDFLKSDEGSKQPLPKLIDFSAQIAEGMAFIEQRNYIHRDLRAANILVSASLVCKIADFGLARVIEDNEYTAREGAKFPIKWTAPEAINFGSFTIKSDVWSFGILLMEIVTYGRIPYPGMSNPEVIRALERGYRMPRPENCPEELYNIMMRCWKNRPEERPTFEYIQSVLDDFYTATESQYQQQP

[6] = molecular target: T6, FGFR2 (Mus musculus, UniProt P21803)
T6 construct: specificity data for proteins generated from a library of eighteen full-length clones; host or cells: rabbit reticulocyte lysate, TnT coupled in vitro transcription/translation (cell-free)
T6 sequence (P21803 22-821): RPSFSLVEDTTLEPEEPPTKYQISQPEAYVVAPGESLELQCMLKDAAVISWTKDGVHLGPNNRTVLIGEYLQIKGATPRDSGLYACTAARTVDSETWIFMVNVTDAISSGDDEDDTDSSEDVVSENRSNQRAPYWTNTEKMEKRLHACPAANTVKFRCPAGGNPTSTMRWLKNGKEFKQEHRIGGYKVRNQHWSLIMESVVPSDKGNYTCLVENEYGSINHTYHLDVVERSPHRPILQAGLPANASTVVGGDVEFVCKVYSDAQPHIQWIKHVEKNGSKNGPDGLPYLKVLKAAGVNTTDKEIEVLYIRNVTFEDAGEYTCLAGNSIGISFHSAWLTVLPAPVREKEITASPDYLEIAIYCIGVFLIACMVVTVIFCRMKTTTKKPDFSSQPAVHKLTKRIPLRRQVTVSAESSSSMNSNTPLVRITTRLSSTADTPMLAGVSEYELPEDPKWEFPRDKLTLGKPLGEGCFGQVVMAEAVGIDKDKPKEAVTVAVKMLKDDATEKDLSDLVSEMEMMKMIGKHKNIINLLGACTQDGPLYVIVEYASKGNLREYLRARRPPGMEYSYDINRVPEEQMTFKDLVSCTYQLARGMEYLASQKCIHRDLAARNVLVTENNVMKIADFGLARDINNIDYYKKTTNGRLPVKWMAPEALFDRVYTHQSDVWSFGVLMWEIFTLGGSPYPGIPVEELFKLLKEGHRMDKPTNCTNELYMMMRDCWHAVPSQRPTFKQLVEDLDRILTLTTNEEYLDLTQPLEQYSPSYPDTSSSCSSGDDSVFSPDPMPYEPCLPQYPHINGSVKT

[7] = molecular target: T7, CSK (Homo sapiens, UniProt P41240)
T7 construct: specificity data for proteins generated from a library of eighteen full-length clones; host or cells: rabbit reticulocyte lysate, TnT coupled in vitro transcription/translation (cell-free)
T7 sequence (P41240 whole entry): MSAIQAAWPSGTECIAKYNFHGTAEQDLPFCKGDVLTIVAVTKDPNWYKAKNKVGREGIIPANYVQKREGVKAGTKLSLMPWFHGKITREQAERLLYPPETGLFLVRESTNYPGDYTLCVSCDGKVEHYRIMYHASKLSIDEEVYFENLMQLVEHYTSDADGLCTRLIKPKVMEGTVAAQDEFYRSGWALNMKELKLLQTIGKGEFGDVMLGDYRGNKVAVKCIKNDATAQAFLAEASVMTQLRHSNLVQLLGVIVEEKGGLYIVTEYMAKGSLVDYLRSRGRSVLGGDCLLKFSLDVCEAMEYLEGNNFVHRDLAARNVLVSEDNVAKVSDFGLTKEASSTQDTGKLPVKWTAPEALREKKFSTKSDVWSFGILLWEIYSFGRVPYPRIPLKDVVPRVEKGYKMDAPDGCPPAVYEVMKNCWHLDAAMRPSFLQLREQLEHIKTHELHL

[8] = molecular target: T8, BMX (Homo sapiens, UniProt P51813)
T8 construct: specificity data for proteins generated from a library of eighteen full-length clones; host or cells: rabbit reticulocyte lysate, TnT coupled in vitro transcription/translation (cell-free)
T8 sequence (P51813 1-675): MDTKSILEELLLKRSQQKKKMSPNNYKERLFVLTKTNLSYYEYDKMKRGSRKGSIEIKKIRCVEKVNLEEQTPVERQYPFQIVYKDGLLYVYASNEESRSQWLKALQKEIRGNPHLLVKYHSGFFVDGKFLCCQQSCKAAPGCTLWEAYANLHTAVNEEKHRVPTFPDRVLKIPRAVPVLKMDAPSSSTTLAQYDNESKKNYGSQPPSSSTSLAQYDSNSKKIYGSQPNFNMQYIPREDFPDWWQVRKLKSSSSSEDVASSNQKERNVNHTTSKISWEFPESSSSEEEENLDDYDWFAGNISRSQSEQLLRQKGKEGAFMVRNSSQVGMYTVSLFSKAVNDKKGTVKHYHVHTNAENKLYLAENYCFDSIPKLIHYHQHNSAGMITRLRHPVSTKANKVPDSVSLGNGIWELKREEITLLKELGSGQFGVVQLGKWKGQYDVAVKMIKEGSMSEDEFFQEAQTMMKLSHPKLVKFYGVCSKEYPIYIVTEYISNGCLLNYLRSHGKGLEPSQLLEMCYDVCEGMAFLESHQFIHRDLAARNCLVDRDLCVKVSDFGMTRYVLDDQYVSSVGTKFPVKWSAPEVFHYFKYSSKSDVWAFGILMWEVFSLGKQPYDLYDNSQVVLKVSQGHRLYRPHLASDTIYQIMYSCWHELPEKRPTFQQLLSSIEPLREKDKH

[9] = molecular target: T9, Fgfr4 (Mus musculus, UniProt Q03142)
T9 construct: specificity data for proteins generated from a library of eighteen full-length clones; biotin on random lysines (biotin-Lys-tRNA); host or cells: rabbit reticulocyte lysate, coupled transcription/translation (TnT, Promega)
T9 sequence (Q03142 17-799): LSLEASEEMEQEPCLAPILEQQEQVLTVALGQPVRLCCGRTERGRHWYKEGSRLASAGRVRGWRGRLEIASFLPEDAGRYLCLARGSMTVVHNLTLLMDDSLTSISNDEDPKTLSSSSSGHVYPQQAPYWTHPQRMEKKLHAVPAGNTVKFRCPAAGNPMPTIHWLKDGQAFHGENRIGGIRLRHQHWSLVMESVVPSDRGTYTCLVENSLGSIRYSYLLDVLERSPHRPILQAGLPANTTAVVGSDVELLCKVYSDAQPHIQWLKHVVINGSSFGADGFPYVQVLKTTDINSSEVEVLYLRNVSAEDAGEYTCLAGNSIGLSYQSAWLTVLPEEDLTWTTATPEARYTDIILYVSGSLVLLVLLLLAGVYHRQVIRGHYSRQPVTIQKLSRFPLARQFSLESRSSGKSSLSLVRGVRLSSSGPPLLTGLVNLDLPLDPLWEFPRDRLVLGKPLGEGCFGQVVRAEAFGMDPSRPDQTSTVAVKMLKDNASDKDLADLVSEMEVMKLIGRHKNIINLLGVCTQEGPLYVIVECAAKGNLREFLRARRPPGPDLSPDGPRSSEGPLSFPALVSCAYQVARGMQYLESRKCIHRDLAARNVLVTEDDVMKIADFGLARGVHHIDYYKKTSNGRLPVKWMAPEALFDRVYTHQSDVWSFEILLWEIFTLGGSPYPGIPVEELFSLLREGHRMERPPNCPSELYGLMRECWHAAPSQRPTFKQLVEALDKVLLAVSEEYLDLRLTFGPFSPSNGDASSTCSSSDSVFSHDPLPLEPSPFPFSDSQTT

[10] = molecular target: T10, Fert2 (Mus musculus, UniProt P70451)
T10 construct: specificity data for proteins generated from a library of eighteen full-length clones; host or cells: rabbit reticulocyte lysate, TnT coupled transcription/translation
T10 sequence (P70451 whole entry): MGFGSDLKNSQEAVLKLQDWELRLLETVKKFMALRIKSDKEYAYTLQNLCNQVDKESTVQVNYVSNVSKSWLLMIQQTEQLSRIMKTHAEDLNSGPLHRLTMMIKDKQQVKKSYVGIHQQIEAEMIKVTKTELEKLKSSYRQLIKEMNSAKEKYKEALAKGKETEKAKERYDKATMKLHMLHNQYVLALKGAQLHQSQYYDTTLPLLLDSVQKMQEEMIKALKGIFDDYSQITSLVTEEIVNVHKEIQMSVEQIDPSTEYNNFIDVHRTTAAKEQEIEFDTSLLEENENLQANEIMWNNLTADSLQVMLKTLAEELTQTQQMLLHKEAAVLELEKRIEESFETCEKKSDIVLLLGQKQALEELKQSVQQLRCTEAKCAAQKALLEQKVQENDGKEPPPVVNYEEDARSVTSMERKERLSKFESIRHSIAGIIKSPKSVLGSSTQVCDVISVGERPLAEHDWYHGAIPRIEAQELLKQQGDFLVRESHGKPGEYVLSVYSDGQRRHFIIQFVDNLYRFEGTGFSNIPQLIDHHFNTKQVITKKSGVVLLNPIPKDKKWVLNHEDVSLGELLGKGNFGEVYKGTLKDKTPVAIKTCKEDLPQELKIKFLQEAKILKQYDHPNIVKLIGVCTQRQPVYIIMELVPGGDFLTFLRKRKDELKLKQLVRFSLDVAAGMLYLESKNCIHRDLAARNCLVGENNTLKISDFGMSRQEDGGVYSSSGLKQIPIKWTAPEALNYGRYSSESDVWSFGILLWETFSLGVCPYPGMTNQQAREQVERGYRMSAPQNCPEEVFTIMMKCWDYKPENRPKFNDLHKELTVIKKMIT

Compound	Inhibition specificity towards Autophosphorylation at 10X IC50, Kit [1]	Inhibition specificity towards Autophosphorylation at 10X IC50, Src [2]	Inhibition specificity towards Autophosphorylation at 10X IC50, SYK [3]	Inhibition specificity towards Autophosphorylation at 10X IC50, FGFR1 [4]	Inhibition specificity towards Autophosphorylation at 10X IC50, HCK [5]	Inhibition specificity towards Autophosphorylation at 10X IC50, FGFR2 [6]	Inhibition specificity towards Autophosphorylation at 10X IC50, CSK [7]	Inhibition specificity towards Autophosphorylation at 10X IC50, BMX [8]	Inhibition specificity towards Autophosphorylation at 10X IC50, Fgfr4 [9]	Inhibition specificity towards Autophosphorylation at 10X IC50, Fert2 [10]
COc1cc2ncnc(Nc3ccc(O)cc3)c2cc1OC [WHI-P131]	L (low inhibition (“L”=between 50–75% of the activity remaining))									
Cc1ccc(-c2nn(C(C)(C)C)c3ncnc(N)c23)cc1 [PP1]		L (low inhibition (“L”=between 50–75% of the activity remaining))								
COC(=O)c1ccc(NCc2cc(O)ccc2O)cc1 [AG-957]	L (low inhibition (“L”=between 50–75% of the activity remaining))	L (low inhibition (“L”=between 50–75% of the activity remaining))	L (low inhibition (“L”=between 50–75% of the activity remaining))	L (low inhibition (“L”=between 50–75% of the activity remaining))	L (low inhibition (“L”=between 50–75% of the activity remaining))	L (low inhibition (“L”=between 50–75% of the activity remaining))	L (low inhibition (“L”=between 50–75% of the activity remaining))	L (low inhibition (“L”=between 50–75% of the activity remaining))	L (low inhibition (“L”=between 50–75% of the activity remaining))	
Erbstatin analog	L (low inhibition (“L”=between 50–75% of the activity remaining))	L (low inhibition (“L”=between 50–75% of the activity remaining))	L (low inhibition (“L”=between 50–75% of the activity remaining))		L (low inhibition (“L”=between 50–75% of the activity remaining))	L (low inhibition (“L”=between 50–75% of the activity remaining))		L (low inhibition (“L”=between 50–75% of the activity remaining))		L (low inhibition (“L”=between 50–75% of the activity remaining))
Cc1cc2ncc(-c3ccc(O)c(O)c3)nc2cc1C [AG-1433]	H (high inhibition (“H”=less than 25% of the activity remaining))	H (high inhibition (“H”=less than 25% of the activity remaining))	H (high inhibition (“H”=less than 25% of the activity remaining))	H (high inhibition (“H”=less than 25% of the activity remaining))	H (high inhibition (“H”=less than 25% of the activity remaining))	H (high inhibition (“H”=less than 25% of the activity remaining))	H (high inhibition (“H”=less than 25% of the activity remaining))	H (high inhibition (“H”=less than 25% of the activity remaining))	H (high inhibition (“H”=less than 25% of the activity remaining))	H (high inhibition (“H”=less than 25% of the activity remaining))
CC(C)(C)c1cc(C=C(C#N)C#N)cc(Br)c1O [AG-1024]						L (low inhibition (“L”=between 50–75% of the activity remaining))			L (low inhibition (“L”=between 50–75% of the activity remaining))	
COc1c(C=O)c(O)cc2c1C(=O)c1ccccc1C2=O [Damnacanthal]	H (high inhibition (“H”=less than 25% of the activity remaining))	H (high inhibition (“H”=less than 25% of the activity remaining))	M (medium inhibition (“M”=between 25 to 50% of the activity remaining))	M (medium inhibition (“M”=between 25 to 50% of the activity remaining))	M (medium inhibition (“M”=between 25 to 50% of the activity remaining))	M (medium inhibition (“M”=between 25 to 50% of the activity remaining))	M (medium inhibition (“M”=between 25 to 50% of the activity remaining))	H (high inhibition (“H”=less than 25% of the activity remaining))	H (high inhibition (“H”=less than 25% of the activity remaining))	L (low inhibition (“L”=between 50–75% of the activity remaining))
